Key:
PAK2 = PAK2 (Homo sapiens, UniProt Q13177); experiment: Kinase profiling; format: biochemical; conditions: 0.1 or 1 μM inhibitor; mean of triplicate
Protocol: (§1) Kinase inhibitor specificity profiling assays were carried out at The International Centre for Protein Kinase Profiling (http://www.kinase-screen.mrc.ac.uk/) against a panel of 140 protein kinases as described previously. Results are presented as a percentage of kinase activity in DMSO control reactions. Protein kinases were assayed in vitro with 0.1 or 1 μM of the inhibitors and the results are presented as an average of triplicate reactions±S.D. or in the form of comparative histograms.

Src = Src (Homo sapiens, UniProt P12931); experiment: Kinase profiling; format: biochemical; conditions: 0.1 or 1 μM inhibitor; mean of triplicate
Protocol: as §1

EIF2AK3 = EIF2AK3 (Homo sapiens, UniProt Q9NZJ5); experiment: Kinase profiling; format: biochemical; conditions: 0.1 or 1 μM inhibitor; mean of triplicate
Protocol: as §1

MLK1 = MLK1 (Homo sapiens, UniProt P80192); experiment: Kinase profiling; format: biochemical; conditions: 0.1 or 1 μM inhibitor; mean of triplicate
Protocol: as §1

IRAK4 = IRAK4 (Homo sapiens, UniProt Q9NWZ3); experiment: Kinase profiling; format: biochemical; conditions: 0.1 or 1 μM inhibitor; mean of triplicate
Protocol: as §1

HIPK3 = HIPK3 (Homo sapiens, UniProt Q9H422); experiment: Kinase profiling; format: biochemical; conditions: 0.1 or 1 μM inhibitor; mean of triplicate
Protocol: as §1

BTK = BTK (Homo sapiens, UniProt Q06187); experiment: Kinase profiling; format: biochemical; conditions: 0.1 or 1 μM inhibitor; mean of triplicate
Protocol: as §1

GSK3β = GSK3β (Homo sapiens, UniProt P49841); experiment: Kinase profiling; format: biochemical; conditions: 0.1 or 1 μM inhibitor; mean of triplicate
Protocol: as §1

FGF-R1 = FGF-R1 (Homo sapiens, UniProt P11362); experiment: Kinase profiling; format: biochemical; conditions: 0.1 or 1 μM inhibitor; mean of triplicate
Protocol: as §1

EPH-B3 = EPH-B3 (Homo sapiens, UniProt P54753); experiment: Kinase profiling; format: biochemical; conditions: 0.1 or 1 μM inhibitor; mean of triplicate
Protocol: as §1

CK2 = CK2 (Homo sapiens, UniProt P68400); experiment: Kinase profiling; format: biochemical; conditions: 0.1 or 1 μM inhibitor; mean of triplicate
Protocol: as §1

MNK1 = MNK1 (Homo sapiens, UniProt Q9BUB5); experiment: Kinase profiling; format: biochemical; conditions: 0.1 or 1 μM inhibitor; mean of triplicate
Protocol: as §1

TLK1 = TLK1 (Homo sapiens, UniProt Q9UKI8); experiment: Kinase profiling; format: biochemical; conditions: 0.1 or 1 μM inhibitor; mean of triplicate
Protocol: as §1

TAO1 = TAO1 (Homo sapiens, UniProt Q7L7X3); experiment: Kinase profiling; format: biochemical; conditions: 0.1 or 1 μM inhibitor; mean of triplicate
Protocol: as §1

RSK2 = RSK2 (Homo sapiens, UniProt P51812); experiment: Kinase profiling; format: biochemical; conditions: 0.1 or 1 μM inhibitor; mean of triplicate
Protocol: as §1

IKKε = IKKε (Homo sapiens, UniProt Q14164); experiment: Kinase profiling; format: biochemical; conditions: 0.1 or 1 μM inhibitor; mean of triplicate
Protocol: as §1

IGF-1R = IGF-1R (Homo sapiens, UniProt P08069); experiment: Kinase profiling; format: biochemical; conditions: 0.1 or 1 μM inhibitor; mean of triplicate
Protocol: as §1

MAP4K3 = MAP4K3 (Homo sapiens, UniProt Q8IVH8); experiment: Kinase profiling; format: biochemical; conditions: 0.1 or 1 μM inhibitor; mean of triplicate
Protocol: as §1

PHK = PHK (Homo sapiens, UniProt Q16816); experiment: Kinase profiling; format: biochemical; conditions: 0.1 or 1 μM inhibitor; mean of triplicate
Protocol: as §1

MINK1 = MINK1 (Homo sapiens, UniProt Q8N4C8); experiment: Kinase profiling; format: biochemical; conditions: 0.1 or 1 μM inhibitor; mean of triplicate
Protocol: as §1

[1] = tested on: ACC Ser79 phosphorylation; experiment: ACC Ser79 phosphorylation on EDTA-induced detachment, HEK-293; format: cell-based, human; conditions: HEK-293, 16 h
Protocol: HEK (human embryonic kidney)-293 and U2OS cells were cultured in DMEM (Dulbecco's modified Eagle's medium) supplemented with 10% FBS, 2 mM glutamine and 1×antibacterial/antimycotic solution. NUAK1^+/+ and NUAK1^−/− MEFs were cultured in DMEM supplemented with 10% (v/v) FBS and 2 mM glutamine, 1×antibacterial/antimycotic solution, 1% (v/v) non-essential amino acids and 1% (v/v) sodium pyruvate. HEK-293 Flp/In T-Rex cell lines were cultured in DMEM supplemented with 10% (v/v) FBS and 2 mM glutamine, 1×antibacterial/antimycotic solution, 100 μg/ml hygromycin and 15 μg/ml blasticidin. Supplementing the culture medium with 0.1 μg/ml doxycycline for 16–24 h induced protein expression in the HEK-293 Flp/In T-Rex cells. Cell counting was carried out using Invitrogen Countess following the manufacturer's protocol. A cell-detachment assay was carried out on HEK-293 cells using PBS-EDTA-based cell dissociation buffer as described previously. An inhibitor dose-dependence assay was carried out by treating the cells with various concentrations of the inhibitors as indicated in the Figure legends. The inhibitors were dissolved in DMSO and the total concentration of DMSO in the culture media never exceeded 1%. Transient transfections of HEK-293 cells were carried out using PEI [24]. Stable transfections were carried out in HEK-293 Flp/In T-Rex cells (Invitrogen) following the manufacturer's protocol. […]

Chain of MNK1 (Q9BUB5 whole entry): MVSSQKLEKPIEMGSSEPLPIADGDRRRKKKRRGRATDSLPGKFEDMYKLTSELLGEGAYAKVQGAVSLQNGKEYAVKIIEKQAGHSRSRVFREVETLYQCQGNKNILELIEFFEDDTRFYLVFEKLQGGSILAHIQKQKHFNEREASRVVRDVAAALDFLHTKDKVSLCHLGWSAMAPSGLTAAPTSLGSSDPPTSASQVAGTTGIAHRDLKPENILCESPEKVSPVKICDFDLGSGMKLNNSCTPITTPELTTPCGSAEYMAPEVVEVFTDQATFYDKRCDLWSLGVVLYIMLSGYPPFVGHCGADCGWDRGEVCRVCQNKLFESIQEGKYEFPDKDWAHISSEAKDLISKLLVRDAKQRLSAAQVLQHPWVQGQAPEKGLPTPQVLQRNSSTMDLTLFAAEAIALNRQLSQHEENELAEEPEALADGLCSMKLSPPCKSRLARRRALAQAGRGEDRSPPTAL
Chain of Src (P12931 whole entry): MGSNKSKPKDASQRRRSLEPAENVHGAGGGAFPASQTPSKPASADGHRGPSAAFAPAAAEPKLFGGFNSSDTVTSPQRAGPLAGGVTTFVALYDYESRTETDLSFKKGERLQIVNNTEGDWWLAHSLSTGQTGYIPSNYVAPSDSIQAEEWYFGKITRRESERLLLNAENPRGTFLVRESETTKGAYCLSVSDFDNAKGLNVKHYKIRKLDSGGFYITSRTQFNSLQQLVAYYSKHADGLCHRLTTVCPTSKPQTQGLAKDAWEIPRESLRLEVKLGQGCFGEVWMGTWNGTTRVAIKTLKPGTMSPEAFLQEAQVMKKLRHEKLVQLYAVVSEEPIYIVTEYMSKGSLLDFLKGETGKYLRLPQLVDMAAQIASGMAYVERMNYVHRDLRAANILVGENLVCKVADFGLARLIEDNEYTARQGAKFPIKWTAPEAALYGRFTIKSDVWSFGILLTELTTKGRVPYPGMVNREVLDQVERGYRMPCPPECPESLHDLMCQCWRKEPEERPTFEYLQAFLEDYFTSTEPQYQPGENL
Chain of IKKε (Q14164 whole entry): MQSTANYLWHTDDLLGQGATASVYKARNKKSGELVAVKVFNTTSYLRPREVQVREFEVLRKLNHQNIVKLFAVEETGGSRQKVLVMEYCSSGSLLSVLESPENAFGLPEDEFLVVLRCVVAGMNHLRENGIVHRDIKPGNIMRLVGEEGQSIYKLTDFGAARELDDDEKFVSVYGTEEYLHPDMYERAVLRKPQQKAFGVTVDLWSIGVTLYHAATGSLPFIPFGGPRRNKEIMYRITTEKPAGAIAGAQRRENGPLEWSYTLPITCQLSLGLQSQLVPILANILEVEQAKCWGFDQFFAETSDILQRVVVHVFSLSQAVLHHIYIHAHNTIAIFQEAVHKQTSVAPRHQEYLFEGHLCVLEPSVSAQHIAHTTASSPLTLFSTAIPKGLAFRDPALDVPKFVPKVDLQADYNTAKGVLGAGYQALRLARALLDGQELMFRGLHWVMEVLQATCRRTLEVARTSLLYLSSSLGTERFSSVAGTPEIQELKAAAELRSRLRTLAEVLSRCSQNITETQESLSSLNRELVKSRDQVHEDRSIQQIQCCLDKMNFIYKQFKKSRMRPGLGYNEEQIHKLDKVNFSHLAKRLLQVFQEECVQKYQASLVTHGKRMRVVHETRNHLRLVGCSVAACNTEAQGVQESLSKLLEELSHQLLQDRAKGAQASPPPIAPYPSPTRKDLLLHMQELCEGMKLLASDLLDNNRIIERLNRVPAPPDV
Chain of IGF-1R (P08069 31-1367): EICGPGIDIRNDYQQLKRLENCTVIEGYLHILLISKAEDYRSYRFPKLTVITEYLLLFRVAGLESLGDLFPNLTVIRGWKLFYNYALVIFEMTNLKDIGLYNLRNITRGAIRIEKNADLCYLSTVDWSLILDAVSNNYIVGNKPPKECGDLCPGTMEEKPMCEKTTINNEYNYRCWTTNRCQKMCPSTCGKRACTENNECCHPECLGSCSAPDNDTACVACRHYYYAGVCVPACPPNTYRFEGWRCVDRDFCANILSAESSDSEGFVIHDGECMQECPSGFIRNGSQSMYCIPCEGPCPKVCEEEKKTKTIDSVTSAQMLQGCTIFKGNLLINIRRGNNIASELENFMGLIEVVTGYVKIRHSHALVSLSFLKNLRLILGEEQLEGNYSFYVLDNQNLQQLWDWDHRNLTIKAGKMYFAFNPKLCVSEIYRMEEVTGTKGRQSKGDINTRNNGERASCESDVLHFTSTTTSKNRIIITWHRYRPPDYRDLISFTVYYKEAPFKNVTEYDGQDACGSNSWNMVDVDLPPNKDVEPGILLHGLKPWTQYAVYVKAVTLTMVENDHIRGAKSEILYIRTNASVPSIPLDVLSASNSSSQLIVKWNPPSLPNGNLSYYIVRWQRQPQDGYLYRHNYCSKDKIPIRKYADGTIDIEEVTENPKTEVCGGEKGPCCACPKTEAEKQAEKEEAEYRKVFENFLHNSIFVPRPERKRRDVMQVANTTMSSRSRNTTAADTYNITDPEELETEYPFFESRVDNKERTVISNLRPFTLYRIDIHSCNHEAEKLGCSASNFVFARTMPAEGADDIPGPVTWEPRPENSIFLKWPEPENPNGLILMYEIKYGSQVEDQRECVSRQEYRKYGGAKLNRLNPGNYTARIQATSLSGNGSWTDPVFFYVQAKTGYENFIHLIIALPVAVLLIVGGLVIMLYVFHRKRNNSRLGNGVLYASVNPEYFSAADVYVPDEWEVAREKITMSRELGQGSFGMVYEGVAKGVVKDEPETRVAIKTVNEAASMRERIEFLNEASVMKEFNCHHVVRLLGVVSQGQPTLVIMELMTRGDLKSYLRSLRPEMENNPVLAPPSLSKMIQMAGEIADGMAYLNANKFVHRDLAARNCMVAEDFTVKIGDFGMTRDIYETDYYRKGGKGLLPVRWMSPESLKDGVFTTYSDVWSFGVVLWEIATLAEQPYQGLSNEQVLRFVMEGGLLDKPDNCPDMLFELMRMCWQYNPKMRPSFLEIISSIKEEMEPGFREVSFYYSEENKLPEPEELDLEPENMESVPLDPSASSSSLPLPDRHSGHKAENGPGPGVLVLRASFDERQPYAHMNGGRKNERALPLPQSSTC
Chain of MLK1 (P80192 whole entry): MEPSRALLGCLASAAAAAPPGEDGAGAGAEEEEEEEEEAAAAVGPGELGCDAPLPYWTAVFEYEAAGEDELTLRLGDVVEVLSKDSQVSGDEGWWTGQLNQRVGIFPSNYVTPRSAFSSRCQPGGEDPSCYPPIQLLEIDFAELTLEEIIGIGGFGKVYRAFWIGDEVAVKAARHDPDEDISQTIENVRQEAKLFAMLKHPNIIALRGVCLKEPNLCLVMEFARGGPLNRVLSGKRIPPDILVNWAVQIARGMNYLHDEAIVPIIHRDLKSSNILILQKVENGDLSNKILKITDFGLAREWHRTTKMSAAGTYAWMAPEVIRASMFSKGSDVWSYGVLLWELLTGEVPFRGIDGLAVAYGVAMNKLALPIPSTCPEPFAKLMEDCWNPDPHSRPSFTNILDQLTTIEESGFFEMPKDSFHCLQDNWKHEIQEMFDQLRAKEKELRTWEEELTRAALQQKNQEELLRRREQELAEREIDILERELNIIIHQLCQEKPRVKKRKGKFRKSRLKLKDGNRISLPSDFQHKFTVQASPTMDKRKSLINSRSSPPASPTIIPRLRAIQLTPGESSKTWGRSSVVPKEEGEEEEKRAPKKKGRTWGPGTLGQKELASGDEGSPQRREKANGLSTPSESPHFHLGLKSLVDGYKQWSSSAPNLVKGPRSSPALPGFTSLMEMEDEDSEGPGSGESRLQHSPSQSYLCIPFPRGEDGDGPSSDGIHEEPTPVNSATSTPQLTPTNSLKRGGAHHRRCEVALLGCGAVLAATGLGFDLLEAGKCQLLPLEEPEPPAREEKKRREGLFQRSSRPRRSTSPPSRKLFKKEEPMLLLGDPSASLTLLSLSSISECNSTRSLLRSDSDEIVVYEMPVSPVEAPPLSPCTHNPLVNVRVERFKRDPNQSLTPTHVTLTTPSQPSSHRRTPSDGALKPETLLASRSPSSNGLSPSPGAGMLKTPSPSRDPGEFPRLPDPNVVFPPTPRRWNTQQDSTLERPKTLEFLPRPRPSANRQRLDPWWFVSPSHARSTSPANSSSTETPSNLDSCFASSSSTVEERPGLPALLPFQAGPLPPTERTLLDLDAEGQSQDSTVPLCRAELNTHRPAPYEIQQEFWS
Chain of PAK2 (Q13177 whole entry): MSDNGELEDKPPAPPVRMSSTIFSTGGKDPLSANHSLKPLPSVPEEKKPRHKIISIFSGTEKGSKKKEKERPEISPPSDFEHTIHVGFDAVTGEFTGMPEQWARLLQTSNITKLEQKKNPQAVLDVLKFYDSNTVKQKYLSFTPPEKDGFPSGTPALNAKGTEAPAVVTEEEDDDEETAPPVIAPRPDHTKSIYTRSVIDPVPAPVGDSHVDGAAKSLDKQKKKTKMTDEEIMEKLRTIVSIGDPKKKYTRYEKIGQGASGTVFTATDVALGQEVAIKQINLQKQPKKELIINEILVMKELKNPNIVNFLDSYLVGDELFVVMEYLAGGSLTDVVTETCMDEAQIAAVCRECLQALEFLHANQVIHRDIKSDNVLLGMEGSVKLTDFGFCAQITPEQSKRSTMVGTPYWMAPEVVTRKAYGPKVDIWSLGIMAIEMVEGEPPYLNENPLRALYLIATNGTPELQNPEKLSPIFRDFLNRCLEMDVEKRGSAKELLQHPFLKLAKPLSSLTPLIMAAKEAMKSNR
Chain of PHK (Q16816 whole entry): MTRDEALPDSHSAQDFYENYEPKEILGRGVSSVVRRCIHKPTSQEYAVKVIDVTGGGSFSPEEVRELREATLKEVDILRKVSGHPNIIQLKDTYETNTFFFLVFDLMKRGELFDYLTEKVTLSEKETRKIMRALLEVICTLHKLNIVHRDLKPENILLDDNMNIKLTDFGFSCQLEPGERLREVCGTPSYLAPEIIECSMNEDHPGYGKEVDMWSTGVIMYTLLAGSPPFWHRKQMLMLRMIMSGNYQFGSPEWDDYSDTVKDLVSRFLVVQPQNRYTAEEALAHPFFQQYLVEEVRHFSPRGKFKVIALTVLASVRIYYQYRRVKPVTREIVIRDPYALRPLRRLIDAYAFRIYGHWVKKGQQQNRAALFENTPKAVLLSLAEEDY

Structure (SMILES)	PAK2 activity, percentage of DMSO control (PAK2)	Src activity, percentage of DMSO control (Src)	EIF2AK3 activity, percentage of DMSO control (EIF2AK3)	MLK1 activity, percentage of DMSO control (MLK1)	IRAK4 activity, percentage of DMSO control (IRAK4)	HIPK3 activity, percentage of DMSO control (HIPK3)	BTK activity, percentage of DMSO control (BTK)	GSK3β activity, percentage of DMSO control (GSK3β)	FGF-R1 activity, percentage of DMSO control (FGF-R1)	EPH-B3 activity, percentage of DMSO control (EPH-B3)	CK2 activity, percentage of DMSO control (CK2)	MNK1 activity, percentage of DMSO control (MNK1)	TLK1 activity, percentage of DMSO control (TLK1)	TAO1 activity, percentage of DMSO control (TAO1)	RSK2 activity, percentage of DMSO control (RSK2)	IKKε activity, percentage of DMSO control (IKKε)	IGF-1R activity, percentage of DMSO control (IGF-1R)	MAP4K3 activity, percentage of DMSO control (MAP4K3)	PHK activity, percentage of DMSO control (PHK)	MINK1 activity, percentage of DMSO control (MINK1)	further results
Cc1nc(Nc2cnn(C3CCNCC3)c2)nc2c1N(C)C(=O)c1cc3ccccc3cc1N2C [HTH-01-015]	125 percentage	76 percentage	99 percentage	102 percentage	103 percentage	96 percentage	109 percentage	119 percentage	105 percentage	120 percentage	120 percentage	102 percentage	106 percentage	123 percentage	106 percentage	85 percentage	133 percentage	127 percentage	104 percentage	101 percentage	Inhibition of ACC Ser79 phosphorylation induced by cell detachment (in words) [1]: neither compound inhibited
CCC(=O)Nc1cccc(Oc2nc(Nc3ccc(N4CCN(C)CC4)cc3OC)ncc2Cl)c1 [WZ4003]	92 percentage	109 percentage	76 percentage	69 percentage	92 percentage	91 percentage	114 percentage	88 percentage	66 percentage	113 percentage	76 percentage	104 percentage	91 percentage	101 percentage	76 percentage	104 percentage	33 percentage	111 percentage	54 percentage	120 percentage	Inhibition of ACC Ser79 phosphorylation induced by cell detachment (in words) [1]: neither compound inhibited
